Laboratory results: patent US10813941B2, “Methods and compounds for treating malaria” (THE GEORGE WASHINGTON UNIVERSITY, A CONGRESSIONALLY …, priority 2016, dated 2020)
Read-outs that look alike come from different tables or passages of the source.

Tests used:
P. falciparum D10 = experiment: P. falciparum growth inhibition assay, strain D10; assay type: cell-based, Plasmodium falciparum; settings: P. falciparum D10 (mefloquine resistant), 72 h
Protocol: (§1) Asynchronous P. falciparum cultures were diluted to 1% parasitemia and were treated with FR900098 analogs at concentrations ranging from 0.25 ng/ml-100 μg/ml. Growth inhibition assays were performed in opaque 96-well plates at 100 μl culture volume. After 3 days, parasite growth was quantified by measuring DNA content using PicoGreen (Life Technologies), as described. Fluorescence was measured on a FLUOstar Omega microplate reader (BMG Labtech) at 485 nm excitation and 528 nm emission. Half maximal inhibitory concentration (IC50) values were calculated by nonlinear regression analysis using GraphPad Prism software. For isopentenyl pyrophosphate (IPP) (Echelon) rescue experiments, 250 μM IPP was added to the appropriate wells for the duration of the experiment.

P. falciparum 3D7 = experiment: P. falciparum growth inhibition assay (PicoGreen, 72 h), strain 3D7; assay type: cell-based, Plasmodium falciparum
Text: (§2) P. falciparum strains were obtained through the MR4 as part of the BEI Resources Repository, NIAID NIH (www.mr4.org): Plasmodium falciparum 3D7 (wild-type, WT), Plasmodium falciparum K1 (MRA-159; chloroquine and sulfadoxine-pyrimethamine resistant) deposited by D E Kyle, and Plasmodium falciparum IPC 5202 Battambang Cambodia 2011 (MRA-1240; chloroquine and artemisinin resistant) deposited by Didier Menard at the Institut Pasteur du Cambodge. The P. falciparum mutant containing increased levels of MEP pathway metabolites had1 (MRA-1257), and its compliment had1+PfHad1-GFP (MRA-1258), were generated in strain 3D7 as reported (BEI Resources; Guggisburg 2014). Parasites were cultured in a 2% suspension of human erythrocytes and RPMI 1640 (Sigma) medium supplemented with 27 mM sodium bicarbonate, 11 mM glucose, 5 mM HEPES, 1 mM sodium pyruvate, 0.37 mM hypoxanthine, 0.01 mM thymidine, 10 μg/ml gentamicin, and 0.5% albumax (Gibco) at 37° C., 5% O2/5% CO2/90% N2 atmosphere as previously described (Zhang 2011).
as §1

[1] = test system: P. falciparum had1 (PfHad1 loss-of-function strain); experiment: microbe, parasite or virus in culture; assay type: cell-based, Plasmodium falciparum
Text: as §2, §1

P. falciparum K1 = experiment: P. falciparum growth inhibition assay, strain K1; assay type: cell-based, Plasmodium falciparum; settings: P. falciparum K1 (chloroquine and sulfadoxine-pyrimethamine resistant), 72 h
Text: as §2, with “Parasites were cultured in a 2% suspension of human erythrocytes and RPMI 1640 (Sigma) medium supplemented with 27 mM sodium bicarbonate, 11 mM glucose, 5 mM HEPES, 1 mM sodium pyruvate, 0.37 mM hypoxanthine, 0.01 mM thymidine, 10 μg/ml gentamicin, and 0.5% albumax (Gibco) at 37° C., 5% O2/5% CO2/90% N2 atmosphere as previously described (Zhang 2011).” left out
as §1, with “Growth inhibition assays were performed in opaque 96-well plates at 100 μl culture volume.” left out, “For isopentenyl pyrophosphate (IPP) (Echelon) rescue experiments, 250 μM IPP was added to the appropriate wells for the duration of the experiment.” left out

P. falciparum D6 = experiment: P. falciparum growth inhibition assay, strain D6; assay type: cell-based, Plasmodium falciparum; settings: P. falciparum D6 (mefloquine resistant), 72 h
Protocol: as §1

[2] = cited from earlier work
[3] = rat, oral administration; cited from earlier work
P. falciparum 7G8 = experiment: P. falciparum growth inhibition assay, strain 7G8; assay type: cell-based, Plasmodium falciparum; settings: P. falciparum 7G8 (quinine, chloroquine, and pyrimethamine resistant), 72 h
Protocol: as §1

P. falciparum strain 3D7 = experiment: IPP rescue of growth inhibition; assay type: cell-based, Plasmodium falciparum; settings: 250 μM IPP; RCB-185 1.2 nM-590.5 nM
Protocol: as §1

[4] = mouse, oral administration; cited from earlier work
P. falciparum Battambang = experiment: P. falciparum growth inhibition assay, strain Battambang; assay type: cell-based, Plasmodium falciparum; settings: P. falciparum Battambang (chloroquine and artemisinin resistant), 72 h
Text: as §2, with “Parasites were cultured in a 2% suspension of human erythrocytes and RPMI 1640 (Sigma) medium supplemented with 27 mM sodium bicarbonate, 11 mM glucose, 5 mM HEPES, 1 mM sodium pyruvate, 0.37 mM hypoxanthine, 0.01 mM thymidine, 10 μg/ml gentamicin, and 0.5% albumax (Gibco) at 37° C., 5% O2/5% CO2/90% N2 atmosphere as previously described (Zhang 2011).” left out
as §1, with “Growth inhibition assays were performed in opaque 96-well plates at 100 μl culture volume.” left out, “For isopentenyl pyrophosphate (IPP) (Echelon) rescue experiments, 250 μM IPP was added to the appropriate wells for the duration of the experiment.” left out

P. falciparum = settings: cited from earlier work
[5] = test system: P. falciparum had1+HAD1-GFP; experiment: P. falciparum growth inhibition assay, complemented strain had1+HAD1-GFP; assay type: cell-based, Plasmodium falciparum; settings: had1 mutant supplied with WT copy of had1, FIG. 3 panel B
Text: as §2, with “Parasites were cultured in a 2% suspension of human erythrocytes and RPMI 1640 (Sigma) medium supplemented with 27 mM sodium bicarbonate, 11 mM glucose, 5 mM HEPES, 1 mM sodium pyruvate, 0.37 mM hypoxanthine, 0.01 mM thymidine, 10 μg/ml gentamicin, and 0.5% albumax (Gibco) at 37° C., 5% O2/5% CO2/90% N2 atmosphere as previously described (Zhang 2011).” left out
as §1, with “Growth inhibition assays were performed in opaque 96-well plates at 100 μl culture volume.” left out, “For isopentenyl pyrophosphate (IPP) (Echelon) rescue experiments, 250 μM IPP was added to the appropriate wells for the duration of the experiment.” left out

[6] = test system: P. falciparum strain NF54 gametocytes; experiment: Gametocyte assay (flow cytometry); assay type: cell-based, Plasmodium falciparum; settings: 72 h, 5 μM to 0.001 μM
Protocol: The next day, the parasites were resuspended at 10% gametocytemia, and 2% hematocrit.
A 96-well plate was prepared with 2× concentration of RCB-185 ranging 10 μM to 0.002 μM in complete RPMI with 1% DMSO as well as a positive control, 65 nM epoxomicin, and a negative control, 1% DMSO. Percoll purified NF54 strain P. falciparum gametocytes were added to individual wells at 2% hematocrit and 10% parasitemia in a 1:1 dilution, resulting in a final 1% hematocrit and a two-fold dilution of RCB-185 for a final concentration range of 5 μM to 0.001 μM and a final 0.5% DMSO, 32.5 nM epoxomicin. The plate was gassed with 90% N2, 5% O2, 5% CO2 and incubated at 37° C. with compound for 72 h. Following incubation, cells were analyzed using flow cytomtetry as described below.
Cells were incubated at a final 0.1% hematocrit in 50 nM DiIC(1)5 with buffer containing 1.67 mg/ml glucose, 8 mg/mL NaCl, 8 mM Tris-Cl (pH 7.4) and incubated at 37° C. for 20-30 minutes prior to analysis on BD Accuri C6 flow cytometer. Uninfected RBCs and unstained P. falciparum infected RBCs were incubated with MitoProbe DiIC1(5) as controls to determine the threshold for MitoProbe DiIC1(5) (640 nm laser excitation and FL4 emission filter [675/25 nm]) positive, single, and intact cell populations. One-way ANOVA was used to test for significance between the three treatment groups (VassarStats).

P. berghei ANKA = experiment: Mouse model of malaria, P. berghei asexual blood stages (luciferase); assay type: in vivo, Swiss Webster mice
Protocol: In vivo testing of RCB-185 against intraerythrocytic P. berghei parasites was performed by the Anti-Infectives Screening Core at NYU School of Medicine. Briefly, groups of 5-7 female Swiss Webster mice weighing 25-30 g were infected via intraperitoneal injection with 10^3 transgenic P. berghei ANKA that express a fusion GFP (mutant 3) and firefly luciferase (LucIAV) fusion under the control of the constitutive eeflaα promoter that is stably integrated into the 230p locus (PbGFP-Luccon). Two days post-infection, mice were treated by intraperitoneal injection with 50 mg/kg of the test compound RCB-185 or 20 mg/kg chloroquine or 2% methyl cellulose, 0.5% tween-80 as positive and vehicle controls, respectively. Treatment continued once a day for 5 days. At 7 days post-infection, mice were administered 2.5% isofluorane via a nose cone, and once anesthesized, were injected i.p. with 150 mg/kg of D-Luciferin Potassium-salt (Goldbio) dissolved in PBS. Mice were imaged 5-10 min after injection of luciferin with an IVIS 100 (Xenogen, Alameda, Calif.) and data acquisition and analysis were performed with Livinglmage (Xenogen) to quantify the level of infection. To test for significance between vehicle- and RCB-185-treated mice, a t-test was used (VassarStats).

[7] = test system: MEP pathway in P. falciparum strain 3D7; experiment: MEP pathway metabolite levels by LC-MS/MS; assay type: cell-based, Plasmodium falciparum; settings: for reduction in MEcPP levels: 10 h
Protocol: P. falciparum strain 3D7 was cultured at 37° C. in 30 ml volumes in 100 mm tissue culture dishes (Techno Plastic Products) at 4% hematocrit until >8% parasitemia. […] Cultures were then lysed with 5% saponin, the parasite pellets washed with 1× phosphate-buffered saline (PBS), and the pellets stored at −80° C. Samples were extracted via addition of 600 μl of ice-cold extraction solvent [chloroform, methanol, and acetonitrile (2:1:1, v/v/v)] and two liquid nitrogen-cooled 3.2 mm stainless steel beads, followed by homogenization in the Tissue-Lyser II instrument (Qiagen, Valencia, Calif.) at 20 Hz for 5 min in a cold sample rack. Ice-cold water (600 μl) was added, and samples were homogenized for an additional 5 min at 20 Hz. After centrifugation (14,000 rcf at 4° C. for 5 min), the polar upper phase was aspirated and lyophilized. Dried samples were dissolved in 100 μl water and analyzed by LC-MS/MS.
The 4000QTRAP LC-MS/MS system (AB Sciex) was used in multiple-reaction monitoring (MRM) mode using negative ionization. The detailed instrument configuration and compound-dependent parameters for isoprenoid precursors were as previously described (Zhang 2011). LC separation prior to MRM detection was achieved by ion pair reverse-phase chromatography as described previously, with 10 mM tributylammonium acetate (pH 5.1-5.5) used as the ion pair reagent and the following modifications: (1) RP-hydro 100 mm×2.0 mm, 2.5 μm high performance liquid chromatography column (Phenomenex), (2) flow rate of 0.14 ml/min, (3) solvent A of 10 mM tributylammonium acetate in 5% methanol, (4) binary LC gradient (20% solvent B (100% methanol) from 0 to 2.5 min, 30% B for 12.5 min, 80% B for 5 min, and column equilibration at for 5 min), and (5) autosampler injection volume of 20 μl. For DOXP and MEcPP metabolites, one-way ANOVA was used to test for significance (VassarStats). A t-test was used to test for significance between UNT and 1× RCB-185 CDP-ME levels (VassarStats).

[8] = Plasmodium falciparum, P. falciparum 3D7 (pan-sensitive, lab adapted), asynchronous, 72 h, mean±SEM

Structure (SMILES): O=CN(O)CCCP(=O)(O)O [FSM, fosmidomycin, reference compound]
- IC50 (P. falciparum D10; Plasmodium falciparum): 2180 ± 353 nM
- IC50 (P. falciparum 3D7; [8]): 1020 ± 77.8 nM
- IC50 (P. falciparum 3D7; Plasmodium falciparum, parent strain 3D7 (WT) in had1 comparison, FIG. 3, mean±SEM): 1160 ± 158 nM
- IC50 ([1]; Plasmodium falciparum): 5350 ± 831 nM
- IC50 (P. falciparum K1; Plasmodium falciparum): 837 ± 141 nM
- IC50 (P. falciparum D6; Plasmodium falciparum): 1340 ± 247 nM
- serum half-life ([2]; in vivo): 1.87 h
- bioavailability ([2]; oral dosing): 20-40%
- LD50 [3]: > 11,000 mg/kg
- IC50 (P. falciparum 7G8; Plasmodium falciparum): 1240 ± 189 nM
- rescue of growth by IPP (P. falciparum strain 3D7): rescues
- LD50 [4]: > 11,000 mg/kg
- IC50 (P. falciparum Battambang; Plasmodium falciparum): 863 ± 248 nM
- tolerability in human patients (P. falciparum; human, in vivo): well-tolerated
- parasite clearance (P. falciparum; mean±standard deviation): 44 ± 18 h

Structure (SMILES): CC(=O)N(O)C/C=C/P(=O)(OCOC(=O)C(C)(C)C)OCOC(=O)C(C)(C)C [RCB-185]
- IC50 (P. falciparum D10): 42.5 ± 11.5 nM
- fold lower IC50 than FSM (P. falciparum 3D7; 3D7, RCB-185 versus FSM): 50 fold
- IC50 (P. falciparum 3D7; P. falciparum 3D7 (pan-sensitive, lab adapted), asynchronous, 72 h, mean±SEM): 18.3 ± 1.9 nM
- IC50 (P. falciparum 3D7; parent strain 3D7 (WT) in had1 comparison, FIG. 3, mean±SEM): 19.9 ± 4.2 nM
- fold more resistant, had1 versus WT parasites ([1]; had1 IC50 versus WT IC50): 3.8 fold
- IC50 ([1]; had1 mutant (FSM-resistant), FIG. 3, mean±SEM, read-out: IC50): 76.5 ± 18.5 nM
- IC50 [5]: 26 ± 6.4 nM
- IC50 (P. falciparum K1): 31.9 ± 1 nM
- IC50 (P. falciparum D6): 37.6 ± 10 nM
- killing of gametocytes [6]: failure of RCB-185 to kill gametocytes
- adverse effects in mice (P. berghei ANKA; 50 mg/kg i.p. once a day): no adverse effects were observed
- drop in parasite load compared to vehicle (P. berghei ANKA; 50 mg/kg i.p. once a day, luciferase signal 7 days post-infection): > 3 log
- IC50 (P. falciparum 7G8): 46.7 ± 10.9 nM
- rescue of growth by IPP (P. falciparum strain 3D7): supports growth of P. falciparum treated with RCB-185 at all concentrations tested
- IC50 (P. falciparum Battambang): 21.1 ± 1.8 nM
- reduction in MEcPP levels ([7]; 1× the IC50 value of 18.3 nM): 3.0 fold
- reduction in MEcPP levels ([7]; 7.5× the IC50 value of 18.3 nM): 5.7 fold
- DOXP levels versus untreated ([7]; 10 h treatment, 1× or 7.5× IC50): no significant difference
- CDP-ME levels ([7]; 10 h treatment, limit of detection 1.25 ng/mL): below the limits of detection
- MEP levels ([7]; 10 h treatment, limit of detection 12.5 ng/ml): below the limits of detection

Structure (SMILES): C[C@@H]1CC[C@H]2[C@@H](C)C(=O)O[C@@H]3O[C@@]4(C)CC[C@@H]1[C@]32OO4 [artemisinin, reference compound]
- IC50 (P. falciparum 3D7; [8]): 10.4 ± 1.6 nM

Structure (SMILES): CCN(CC)CCCC(C)Nc1ccnc2cc(Cl)ccc12 (stereo not shown) [chloroquine, reference compound]
- luciferase signal (parasite burden) (P. berghei ANKA; 20 mg/kg i.p. once a day, 7 days post-infection): below the limit of detection
